In ChEMBL document CHEMBL1759928, “Synthesis and evaluation of library of betulin derivatives against the botulinum neurotoxin A protease” (Bioorg Med Chem Lett, 2011):
Calls of active or inactive are those of the source. No cut-off for these calls is given here.

What was measured:
[1] = molecular target: Botulinum neurotoxin type A (Clostridium botulinum, UniProt P0DPI0); test: Inhibition of Clostridium BoNT/A protease light chain
[2] = molecular target: Botulinum neurotoxin type A (Clostridium botulinum) (UniProt P0DPI0); settings: 0.67 to 18 uM
Chain of Botulinum neurotoxin type A (Clostridium botulinum) (P0DPI0 2-448 limits assumed): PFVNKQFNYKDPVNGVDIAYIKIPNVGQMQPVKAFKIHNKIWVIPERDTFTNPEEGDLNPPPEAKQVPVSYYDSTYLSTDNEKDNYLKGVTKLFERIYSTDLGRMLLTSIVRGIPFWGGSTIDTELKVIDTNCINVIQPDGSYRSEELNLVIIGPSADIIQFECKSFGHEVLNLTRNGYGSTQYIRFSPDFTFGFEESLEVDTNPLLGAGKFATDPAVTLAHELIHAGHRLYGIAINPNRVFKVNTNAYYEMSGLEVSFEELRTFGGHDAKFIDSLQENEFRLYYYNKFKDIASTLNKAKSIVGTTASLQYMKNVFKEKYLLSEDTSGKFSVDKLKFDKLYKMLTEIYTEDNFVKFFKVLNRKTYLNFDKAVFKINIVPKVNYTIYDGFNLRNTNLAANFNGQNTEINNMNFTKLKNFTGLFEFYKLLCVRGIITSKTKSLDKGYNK

Chain of Botulinum neurotoxin type A (P0DPI0 2-448 limits assumed): as above

Structure (SMILES)	IC50 [1] [µM]	Ki [1] [µM]	inhibition [2]
C=C(C)[C@@H]1CC[C@]2(C(=O)OC)CC[C@]3(C)[C@H](CC[C@@H]4[C@@]5(C)CC[C@H](O)C(C)(C)[C@@H]5CC[C@]43C)[C@@H]12 [METHYL BETULINATE]	< 100	–	–
C=C(C)[C@@H]1CC[C@]2(COC(=O)COc3cc(C(C)C)ccc3C)CC[C@]3(C)[C@H](CC[C@@H]4[C@@]5(C)CC[C@H](O)C(C)(C)[C@@H]5CC[C@]43C)[C@@H]12	10	13.3	–
C=C(C)[C@@H]1CC[C@]2(COC(=O)CCC(=O)O)CC[C@]3(C)[C@H](CC[C@@H]4[C@@]5(C)CC[C@H](O)C(C)(C)[C@@H]5CC[C@]43C)[C@@H]12	1.5	0.8	Active
C=C(C)[C@@H]1CC[C@]2(C(=O)O)CC[C@]3(C)[C@H](CC[C@@H]4[C@@]5(C)CC[C@H](O)C(C)(C)[C@@H]5CC[C@]43C)[C@@H]12 [BETULINIC ACID]	20	14.3	–
C=C(C)[C@@H]1CC[C@]2(C(=O)O)CC[C@]3(C)[C@H](CC[C@@H]4[C@@]5(C)CCC(=O)C(C)(C)[C@@H]5CC[C@]43C)[C@@H]12 [BETUNOLIC ACID]	< 100	–	–
